Measurements as given in publication PMC7914639, “Antioxidant, Pancreatic Lipase Inhibitory, and Tyrosinase Inhibitory Activities of Extracts of the Invasive Plant Spartina anglica (Cord-Grass)” (Antioxidants, 2021).

Assays:
[1] = DPPH free radical-scavenging activity; details: for DPPH Radical Scavenging (%): Table S3; for IC50: read-out: Radical-Scavenging Activity Against DPPH IC50
Description: DPPH free radical-scavenging properties were evaluated using a previously reported method. Test sample (an extract, a fraction or a compound) in 100 μL of dimethyl sulfoxide (DMSO) (blank: 100 μL of DMSO solution) was added to 100 μL of an ethanolic solution of DPPH (60 μM) in the wells of a 96-well microplate. […] After the sample and the reagents had been mixed gently and incubated for 30 min at room temperature, the absorbance (A) at 540 nm was evaluated using a microplate reader (Model Infinite M200 PRO; Tecan, Austria). The free radical-scavenging activity was calculated as a percentage using the equation DPPH free radical-scavenging activity (%) = [1 − (Asample/Ablank)] × 100.(1)

[2] = ABTS radical-scavenging assay; details: for ABTS Radical Scavenging (%): Table S4; for IC50: read-out: Radical Scavenging Activity Against ABTS IC50
Description: ABTS radical-scavenging activity was measured using a modified method of Re et al.. The ABTS stock solution was diluted in water to a concentration of 7.4 mM. The ABTS radical was produced by mixing ABTS stock solution with 2.45 mM potassium persulfate and incubating in dark for 12 h at room temperature. The ABTS solution was diluted with ethanol to obtain an absorbance (Ablank) of 0.70 ± 0.02 at 415 nm. After adding 95 μL of diluted ABTS solution to 5 μL of the sample, the mixture was incubated at room temperature for 15 min in dark. The absorbance (Asample) at 415 nm was measured using a microplate reader (Model Infinite M200 PRO; Tecan, Austria). The blank was prepared using the same procedure with deionized water instead of the sample. The ABTS radical scavenging activity was calculated as a percentage using the Equation (2) ABTS radical scavenging activity (%) = [1 − (Asample/Ablank)] × 100(2)

[3] = target: T1, porcine pancreatic lipase (Sus scrofa, UniProt P00591); test: Pancreatic lipase inhibition assay (p-NPB hydrolysis); assay type: biochemical; details: for inhibition at 10 µg/mL: 10 μg/mL; for inhibition at 25 µg/mL: 25 μg/mL; for inhibition at 50 µg/mL: 50 μg/mL
T1 construct: purchased Sigma-Aldrich (St. Louis, MO, USA) Type II
T1 sequence (P00591 1-450): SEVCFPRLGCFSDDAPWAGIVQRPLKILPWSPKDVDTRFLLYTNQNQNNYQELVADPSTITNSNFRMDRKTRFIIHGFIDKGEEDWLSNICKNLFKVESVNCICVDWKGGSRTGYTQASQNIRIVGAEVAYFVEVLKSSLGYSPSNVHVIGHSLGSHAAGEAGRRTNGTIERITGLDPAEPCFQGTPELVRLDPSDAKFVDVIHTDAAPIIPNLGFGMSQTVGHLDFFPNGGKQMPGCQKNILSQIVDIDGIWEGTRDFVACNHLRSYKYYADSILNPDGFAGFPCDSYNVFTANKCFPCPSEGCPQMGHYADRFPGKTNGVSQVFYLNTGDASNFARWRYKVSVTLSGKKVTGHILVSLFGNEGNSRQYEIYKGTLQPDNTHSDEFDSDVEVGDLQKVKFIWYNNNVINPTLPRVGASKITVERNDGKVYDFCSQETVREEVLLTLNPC
Description: Pancreatic lipase activity was measured using the method previously reported by Kim et al.. An enzyme buffer was prepared by the addition of 6 μL of porcine pancreatic lipase solution (Sigma-Aldrich, St. Louis, MO, USA) in a buffer (10 mM morpholinepropanesulfonic acid and 1 mM EDTA, pH 6.8) to Tris buffer (169 μL, 100 mM Tris-HCl, and 5 mM CaCl2, pH 7.0). […] The enzymatic reaction mixtures were incubated at 37 °C for 35 min. Pancreatic lipase activity was determined by measuring the hydrolysis of p-NPB to p-nitrophenol, with absorption being recorded at 405 nm using a microplate reader (Model Infinite M200 PRO; Tecan, Austria). Inhibition of lipase activity was expressed in terms of the percentage reduction in absorbance when porcine pancreatic lipase was incubated with the test compounds, and calculated using the following Equation (4) Inhibition (%) = 100 − [(B − b)/(A − a) × 100](4) where A is the lipase activity without inhibitor, a is the negative control without inhibitor, B is the lipase activity with inhibitor, and b is the negative control with inhibitor. The results are expressed as an average (n = 4).

[4] = tested on: human melanocyte tyrosinase; design: method as in PMID 16442796; details: at 100 μM; cited from earlier work
[5] = tested on: microphthalmia-associated transcription factor, tyrosinase, and tyrosinase-related proteins; design: method as in PMID 30146944; details: compound isolated from stem extract of Aurea helianthus; cited from earlier work
tyrosinase [6] = test: Tyrosinase inhibition assay (L-DOPA oxidation); assay type: biochemical; details: at 100 μg/mL
Description: The tyrosinase inhibition assay was performed using a modification of the method reported by Nerya et al.. A portion of a sample (20 μL) in DMSO (100 μg/mL) was mixed with 50 μL of 0.1 M potassium phosphate buffer (pH 6.8), to which was added 30 μL of 33 unit/mL tyrosinase and 100 μL of 12 mM L-3,4-dihydroxyphenylalanine (L-DOPA). The solution was mixed gently and the initial absorbance (Ainitial) was recorded at 492 nm using a microplate reader. The reaction mixture was then incubated at 37 °C for 4 min and thereafter the final absorbance (Afinal) was measured at 492 nm. Kojic acid was used as the reference drug. The tyrosinase inhibition activity was calculated as a percentage using the Equation (3) Tyrosinase inhibition activity (%) = [1 − (Afinal/Ainitial)] × 100(3)

tyrosinase [7] = target: tyrosinase; design: method as in doi:10.1007/s10600-014-1030-9; details: compound isolated from pollen of Calendula officinalis; cited from earlier work
tyrosinase [8] = target: tyrosinase; design: method as in PMID 12720364, doi:10.1021/jf980226+; details: compound isolated from cumin; cited from earlier work

SMILES	Radical-Scavenging Activity Against DPPH IC50 [1] [µg/mL]	IC50 [1] [µM]	Radical Scavenging Activity Against ABTS IC50 [2] [µg/mL]	IC50 [2] [µM]	inhibition at 10 µg/mL ([3]; Table S5) [%]	inhibition at 25 µg/mL ([3]; Table S5) [%]	inhibition at 50 µg/mL ([3]; Table S5) [%]	inhibition at 100 µg/mL ([3]; 100 μg/mL, Table S5) [%]	DPPH Radical Scavenging (%) ([1]; 1 μg/mL)	DPPH Radical Scavenging (%) ([1]; 2 μg/mL)	DPPH Radical Scavenging (%) ([1]; 5 μg/mL)	DPPH Radical Scavenging (%) ([1]; 10 μg/mL)	DPPH Radical Scavenging (%) ([1]; 25 μg/mL)	DPPH Radical Scavenging (%) ([1]; 50 μg/mL)	DPPH Radical Scavenging (%) ([1]; 100 μg/mL)	DPPH Radical Scavenging (%) ([1]; 250 μg/mL)	DPPH Radical Scavenging (%) ([1]; 500 μg/mL)	ABTS Radical Scavenging (%) ([2]; 5 μg/mL)	ABTS Radical Scavenging (%) ([2]; 25 μg/mL)	ABTS Radical Scavenging (%) ([2]; 50 μg/mL)	also measured
O=C1O[C@H]([C@@H](O)CO)C(O)=C1O [L-Ascorbic acid, reference compound]	1.17	6.64	3.50	19.9	–	–	–	–	45.09 ± 1.40	87.36 ± 2.24	97.41 ± 0.46	98.01 ± 0.07	97.50 ± 0.53	97.28 ± 0.27	97.03 ± 0.26	98.14 ± 0.15	–	70.41 ±0.28	99.75 ± 0.06	99.77 ± 0.08	Radical-Scavenging Activity Against DPPH (%) ([1]; at 100 μg/mL): 98.5 ± 0.2 ^1%; Radical-Scavenging Activity Against ABTS (%) ([2]; at 100 μg/mL): 99.5 ± 0.3 ^1%
CCCCCCCCCCC[C@@H](C[C@@H]1OC(=O)[C@H]1CCCCCC)OC(=O)[C@H](CC(C)C)NC=O [Orlistat, orlistat, reference compound]	–	–	–	–	–	–	–	–	–	–	–	–	–	–	–	–	–	–	–	–	inhibition at 0.1 µg/mL ([3]; 0.10 μg/mL, Table S5): 22.98 ± 0.01%; inhibition at 0.25 µg/mL ([3]; 0.25 μg/mL, Table S5): 27.63 ± 0.01%; inhibition at 0.5 µg/mL ([3]; 0.50 μg/mL, Table S5): 51.17 ± 0.01%; inhibition at 1 µg/mL ([3]; 1.00 μg/mL, Table S5): 54.53 ± 0.02%; inhibition at 100 µg/mL ([3]; at 100 μg/mL): 67.8%
O=c1cc(CO)occ1O [Kojic acid]	–	–	–	–	–	–	–	–	–	–	–	–	–	–	–	–	–	–	–	–	Inhibition of L-DOPA Oxidation (%) (tyrosinase [6]): 98.6 ± 0.4 ^2%

Further lines, with some results ahead:

Radical-Scavenging Activity Against DPPH IC50 [1] [µg/mL]	IC50 [1] [µM]	Radical Scavenging Activity Against ABTS IC50 [2] [µg/mL]	IC50 [2] [µM]	inhibition at 10 µg/mL ([3]; Table S5) [%]	inhibition at 25 µg/mL ([3]; Table S5) [%]	inhibition at 50 µg/mL ([3]; Table S5) [%]	inhibition at 100 µg/mL ([3]; 100 μg/mL, Table S5) [%]	SMILES	DPPH Radical Scavenging (%) ([1]; 1 μg/mL)	DPPH Radical Scavenging (%) ([1]; 2 μg/mL)	DPPH Radical Scavenging (%) ([1]; 5 μg/mL)	DPPH Radical Scavenging (%) ([1]; 10 μg/mL)	DPPH Radical Scavenging (%) ([1]; 25 μg/mL)	DPPH Radical Scavenging (%) ([1]; 50 μg/mL)	DPPH Radical Scavenging (%) ([1]; 100 μg/mL)	DPPH Radical Scavenging (%) ([1]; 250 μg/mL)	DPPH Radical Scavenging (%) ([1]; 500 μg/mL)	ABTS Radical Scavenging (%) ([2]; 5 μg/mL)	ABTS Radical Scavenging (%) ([2]; 25 μg/mL)	ABTS Radical Scavenging (%) ([2]; 50 μg/mL)	also measured
4.67	14.9	8.19	26.1	14.76 ± 0.01	15.87 ± 0.02	16.96 ± 0.02	17.28 ± 0.02	COc1cc(/C=C/C(=O)NCCc2ccc(O)cc2)ccc1O [Compound 3, N-trans-feruloyltyramine]	0.86 ± 2.12	14.90 ± 1.63	54.29 ±0.30	63.25 ± 0.83	70.53 ± 1.74	78.51 ± 0.06	93.65 ± 1.70	95.51 ± 0.10	97.23 ± 0.33	44.18 ± 2.64	78.71 ± 0.06	82.19 ± 1.38	inhibition of human melanocyte tyrosinase [4]: 49 ± 4%; effect on microphthalmia-associated transcription factor, tyrosinase, and tyrosinase-related proteins [5]: downregulate
9.53	17.5	16.37	30.1	0.73 ± 0.01	21.17 ± 0.01	37.95 ± 0.02	41.11 ± 0.01	COc1cc(/C=C/C(=O)O[C@@H]2C[C@@](OC(=O)/C=C/c3ccc(O)c(OC)c3)(C(=O)O)C[C@@H](O)[C@@H]2O)ccc1O [Compound 1, 1,3-di-O-trans-feruloyl-(−)-quinic acid]	11.87 ± 0.82	24.91 ± 0.78	38.70 ± 2.24	51.54 ± 1.30	82.94 ± 0.56	85.92 ± 1.27	89.88 ± 1.25	100.78 ± 1.46	101.99 ± 0.37	27.97 ± 4.11	66.31 ± 1.84	66.38 ± 1.47	IC50 [3]: 242 µM; IC50, activity of tyrosinase against diphenolase (tyrosinase [7]): 134.4 ± 4.8 µg/mL; IC50, activity of tyrosinase against monophenolase (tyrosinase [7]): 44.6 ± 1.5 µg/mL
–	–	–	–	15.07 ± 0.01	36.64 ± 0.02	42.68 ± 0.01	52.6	O=Cc1ccc(O)cc1 [Compound 2, p-hydroxybenzaldehyde]	2.93 ± 2.39	2.73 ± 2.15	3.58 ± 1.79	4.43 ± 0.36	3.61 ± 1.11	3.78 ± 1.40	3.89 ±2.50	7.28 ± 0.80	8.66 ± 0.30	2.03 ± 0.00	3.97 ± 0.43	8.71 ± 0.21	IC50 [3]: 710 µM; IC50 (tyrosinase [8]): 820 µM; type of tyrosinase inhibition (tyrosinase [8]): non-competitive
